Source: patent US10925858B2, “S-nitrosoglutathione (GSNO) and GSNO reductase inhibitors for use in therapy” (MUSC FOUNDATION FOR RESEARCH DEVELOPMENT, priority 2017, dated 2021)

Columns and labels:
[1] = tested on: CD4+ T cells (TH1, TH2, TH17, Treg); test: Fluorescence flow cytometry, polarization/expansion of CD4+ T cell subsets in spleens of EAE mice; parameters: species or system C57BL/6 mice; conditions: EAE mice at peak of disease, ex vivo MOG restimulation
Procedure: Female C57BL/6 mice of 8-12 weeks of age, purchased from Jackson Laboratory, were provided with food and water ad libitum and were kept in pathogen free animal care facility of Medical University of South Carolina (MUSC) throughout the study. All procedures were conducted in accordance with accepted standards of humane care as approved by the Institutional Animal Care and Use Committee (Approved number: AR #1644). EAE was induced as described previously (Nath et al., 2009). Briefly, mice were immunized subcutaneously in the flank regions with MOG35-55 peptide (MOG; 200 μg; Peptide International) emulsified (1:1) in 100 ul complete Freund's adjuvant (CFA) on day 0 and day 7. Additionally, 300 ng of Pertussis toxin (Sigma-Aldrich, St. Louis, Mo.) was given on day 0 and day 2 by i.p. injection. Pertussis toxin used as per the standardized protocol reported by us and other investigators for the induction of EAE (Nath et al., 2009). Similarly, healthy control group received subcutaneous injection of PBS and CFA emulsion on day 0 and day 7. Clinical signs of EAE were scored by examiners blinded to experimental treatments using the following scale: 0=no clinical signs of disease; 1=piloerection and sluggish; 2=limp tail (ataxia); 2.5=ataxia with partial hind limb paralysis; 3=full paralysis of hind limb; 3.5=full paralysis of hind limb with paralysis of one fore limb; 4=full paralysis of two limbs; 4.5=moribund stage; 5=death. […] The drug treatments were continued till the termination of the study (day 41 post immunization). EAE animals without drug treatment received PBS. Likewise, healthy controls received vehicle.
Fluorescence flow cytometry analysis for each subset of CD4+ T cells (TH1, TH2, TH17, CD4+CD25+ FOXP3+ Treg, and CD4+CD25+ FOXP3− Treg) were performed based on our previous report with modification (Nath et al., 2004). Briefly, control mice, EAE mice. EAE mice treated with GSNO. […] Following the preparation of single cell suspension, red blood cells were lysed with Pharma lyse buffer (BD Pharmingen™) and the remaining spleen cells were washed with RPMI 1640. The isolated CD4+ T cells were then resuspended with complete RPMI-media in 12-well plates (5×10^6 cells' 2 ml per well) containing MOG peptide (25 μg/ml) for 48 hrs. Following the centrifugation, the resulted supernatants were collected for ELISA for CD4+ subset specific cytokines (see below). The cell pellets were washed with cell staining solution (ebioscience, Waltham, Mass. USA) and stained with fluorescence labeled antibody specific to IFN-γ for TH1. IL-4 for TH2, IL-17 for TH17, CD25+ for total Treg. CD25+ and FOXP3+ for FOXP3+ Treg, and CD25+ and FOXP3− for FOXP3-Tregs (ebioscience, Waltham, Mass., USA). The cells were counted and analyzed using Beackman Coulter instrument (Beckman Coulter, Inc., Brea, Calif., USA).

RhoA = RhoA activity assay in thrombin treated hBMVECs; assay type: cell-based, human; conditions: thrombin 0.1 unit/ml 5 min; L-NIO or FeTPPS 10 μM pretreated 30 min; GSNO or SIN-1 various concentrations pretreated 2 hr
Procedure: Cell culture: Primary human brain microvascular endothelial cells (hBMVECs) were purchased from Angio-Proteomie (Cat #: cAP-0002, Atlanta, Ga.). The cells were cultured in cell culture flasks or plates precoated with Quick Coating Solution (Angio-Proteomie; Cat #: cAP-01) and maintained in Endothelial Growth Medium (Angio-Proteomie; Cat #: cAP-02) at 37° C. under 5% CO2/95% air. When the cells were almost confluent, the medium was replaced with endothelial basal medium (Angio-Proteomie; Cat #: cAP-03) containing 0.5% fetal bovine serum (FBS; Life Technologies, Grand Island, N.Y.) about 8-12 hours before the experiment. No institutional approval was required for this study. The study was not pre-registered.
RhoA activity in hBMVECs was analyzed by RhoA Activation Assay Kit (Abeam Cat #: ab211164, Cambridge, Mass.). Briefly, following drug treatments, the cells were lysed with 1× Assay buffer provided in the kit. Lysates were centrifuged (14,000×g for 10 sec), and supernatants were incubated with agarose beads coupled to GST-Rhotekin-Rho binding domain (RBD) for 2 h at 4° C. Beads were then washed with 1× Assay buffer and GTP-bound RhoA was eluted with 2×SDS-PAGE sample buffer. Amounts of active (GTP-bound) RhoA were determined by Western blot analysis using antibody specific to RhoA (Abeam).

BBB leakage = test: Evan's blue extravasation assay (BBB leakage) in EAE mice; assay type: in vivo, C57BL/6J mice; conditions: GSNO 1 mg/kg/day or FeTPPS 30 mg/kg/day i.p.
Procedure: EAE was induced as described previously (Nath et al., 2009). Animal procedures were approved by the institutional animal care and use committee of MUSC (AR #1644). Briefly, female C57BL/6J mice of 8-12 weeks of age weighing 18-22 g (The Jackson Laboratory, Bar Harbor, Me., USA) were randomly divided into four groups: 1) EAE animals treated with vehicle (EAE; n=8), 2) EAE with GSNO (1 mg/kg body weight per day; i.p.) treatment (EAE+GSNO; n=12), 3) EAE with FeTPPS (30 mg/kg body weight per day; i.p.) treatment (EAE+FeTPPS; n=8), 4) control with vehicle (Ctrl; n=8). The group size was determined by power analysis based on our previous data (Nadi et al., 2009). Then, the mice were immunized subcutaneously in the flank regions with MOG35-55 peptide (MOG; 200 ug; Peptide International) emulsified (1:1) in 100 ul complete Freund's adjuvant (CFA) CHI day 0 and day 7. […] Clinical signs of EAE were scored in animal facility in a blinded fashion to experimenter between 2 and 4 pm daily by examiners blinded to experimental treatments using the following scale: 0=no clinical signs of disease; 1=limp tail or waddling gait with tail tonicity; 2=waddling gait with limp tail (ataxia); 2.5=ataxia with partial limb paralysis; 3=full paralysis of one limb; 3.5=full paralysis of one limb with partial paralysis of second limb; 4=full paralysis of two limbs; 4.5=moribund stage; 5=death. […]

Row | Compound | TH2 polarization/expansion in spleens [1] | polarization/expansion of CD4+CD25+ FOXP3+ Treg cells in spleens [1] | polarization/expansion of CD4+CD25+ FOXP3− Treg cells in spleens [1] | polarization/expansion of TH1 cells in spleens [1] | polarization/expansion of TH17 cells in spleens [1] | polarization/expansion of total Treg cells (CD4+CD25+) in spleens [1] | thrombin-induced RhoA activation (RhoA) | extravasation of Evan's blue dye into the CNS (BBB leakage)
1 | Cc1cc(C(N)=O)ccc1-n1c(CCC(=O)O)ccc1-c1ccc(-n2ccnc2)cc1 [N6022, reference compound] | fully restored | restored | increased | reduced | reduced |  |  | 
2 | N[C@@H](CCC(=O)N[C@@H](CSN=O)C(=O)NCC(=O)O)C(=O)O [GSNO, S-nitrosoglutathione] |  | without altering | significantly increased | no obvious effect | significantly decreased | increased | inhibited | significantly decreased
3 | Cl.O=S(=O)([O-])c1ccc(-c2c3nc(c(-c4ccc(S(=O)(=O)O)cc4)c4ccc([nH]4)c(-c4ccc(S(=O)(=O)O)cc4)c4nc(c(-c5ccc(S(=O)(=O)O)cc5)c5ccc2[nH]5)C=C4)C=C3)cc1.[Fe] [FeTPPS, 5,10,15,20-Tetrakis(4-sulfonatophenyl)porphyrinato Iron (III), Cl, reference compound] |  |  |  |  |  |  | decreased | significantly decreased
